These results are taken from patent US10046038B2, “Leptospira with increased antigenic mass” (priority 2012, dated 2018).

The subject of one data set is Leptospira. The note with it: most serogroups other than Canicola; alpha or gamma isomer.
Data set [1] deals with Leptospira serogroup Tarassovi. The format is cell-based, L. interrogans (sensu lato). Conditions: EMJH standard BSA, vs unsupplemented reference culture. The protocol:
(§1) All experiments were performed in 0.5, 2 or 20 L working volume, computer-controlled fermenters (Sartorius), which were filled with 0.5, 1 or 10 L sterile-filtered EMJH medium, respectively. The standard EMJH medium contained 1% w/v BSA and 0.125% w/v polysorbate 80. The pH of the medium was 7.4 ±0.1 at start. The fermenter was inoculated with 5% v/v serogroup lcterohaemorrhagiae pre-culture (passage 5), giving an inoculation density of 2-4×10^7 cells/ml at day 0.
(§2) Supplementation was done either with pure linoleic acid (Sigma Aldrich, >99% pure) as a 10% v/v stock in absolute ethanol (JT Baker). Alternatively, linoleic acid was supplemented by using a BSA that was created with a high level of linoleic acid (high LA BSA). This high LA BSA was used either to replace a standard BSA in EMJH medium, or was used in addition to BSA in the EMJH medium, in which case it was added as a 25% w/v stock solution in sterile water. The high LA BSA or the pure linoleic acid/ethanol supplements were fed to a fermenter over the course of 4 hours, at 0.1-0.2 ml/hour, until the fermenter culture had received a desired total amount of linoleic acid. Different total available levels of linoleic acid have been tested, of between about 5 and 425 μg/ml in the total volume. The fermenter cultures of Leptospira were supplemented at different cell-densities i.e. at early-, mid- or end phase culture.
(§3) Daily 5 ml samples were taken aseptically, directly from the fermenter, for analyses of total cell count (by Petroff-Hausser counting chamber); antigenic mass (by antigen amount Elisa); inactivated cells; and for profiling of the fatty acid type and-relative amounts (by gas chromatography) in the culture medium.
(§4) Samples were inactivated with 0.1 or 0.2% v/v BPL, at 29° C. for 16-24 hours. The inactivated Leptospira were tested in an antigen Elisa within 24 hours.
(§5) For a reference see: R. A. Hartskeerl et al., (International course on laboratory methods for the diagnosis of Leptospirosis, 4th Edition, 1 Apr. 2004. Royal Tropical Institute, Amsterdam).
(§6) The Elisa's were set up as capture assays, whereby the same moab was used for coating and for detection.
A reference standard was prepared for each Leptospira strain that was tested by antigen Elisa. The standard is a batch of monovalent Leptospira antigen, from inactivated cells. This was prepared using common techniques, essentially by proliferating a specific strain of Leptospira in EMJH medium as described above, and was inactivated as described before. Next the standard was concentrated and/or diluted in phosphate buffered saline, to contain about 1×10^9 cells/ml. An arbitrary number of antigen units was affixed to the sample, for example: 1000 Units/ml. When the standard needed replenishing, a subsequent preparation of the same standard, was compared and titrated alongside the old standard several times, before replacing it.
As before, the average antigenic mass score by Elisa was calculated per 1×10^9 cells (pre-inactivation). […] The average antigenic mass 1×10^9 cells of the reference culture was set at 0% increase.
Both alpha-and gamma C18:3 were purchased as pure chemicals (>98%).

For data set [2], the system named is Leptospira serogroup Australis (serovar Bratislava). The format is cell-based, L. interrogans (sensu lato). The note with it: linoleic acid supplementation of low LA BSA medium.
For data set [3], the system named is Leptospira serogroup Tarassovi. The data set can be described thus: Biomass and toxicity in fermenter culture. The format is cell-based, L. interrogans (sensu lato). The note with it: 300 μg/ml C18:2; EMJH standard BSA. As to the method: In a supplementation similar to that described in Example 6 above, the effect of supplementation with different amounts of C18:2 fatty acid on the biomass and the antigenic mass of a culture of Leptospira serogroup Tarassovi in EMJH medium with standard BSA was tested.

For data set [4], the system named is Leptospira serogroup Icterohaemorrhagiae. Kind of data set: Antigenic mass of fermenter culture by antigen Elisa. Format: cell-based, L. interrogans (sensu lato). The note with it: for relative Ag. mass (%): non-supplemented = 100. As to the method: A working seed of a strain of L. interrogans was inoculated into EMJH medium and incubated at 29° C. for 3 to 5 days. If needed up to 5 consecutive pre-culture passages could be made, whereby the pre-cultures were visually inspected for sufficient proliferation (turbidity) as criterion for transfer to the next passage.
as §1
(§7) During all fermentation experiments the temperature was controlled at about 29° C. The medium was aerated with headspace airflow, and the dissolved oxygen (pO2) concentration was controlled by automatic variation of the agitation-rate, to maintain a set pO2 concentration. Temperature, pH and pO2 concentration were monitored online, but pH and foam formation were not controlled.
In comparative experiments up to 4 fermenters were run in parallel, which started off simultaneously with the same medium and Leptospira inoculum. One fermenter then usually contained only standard EMJH medium and served as reference, while in the others different supplementations of polyunsaturated C18 fatty acid were made.
as §2, §3, §4, §5, §6
A reference standard was prepared for each Leptospira strain that was tested by antigen Elisa. The standard is a batch of monovalent Leptospira antigen, from inactivated cells. This was prepared using common techniques, essentially by proliferating a specific strain of Leptospira in EMJH medium as described above, and was inactivated as described before.

Data set [5] relates to Leptospira serogroup Grippotyphosa. The format is cell-based, L. interrogans (sensu lato). Conditions: supplementation with linoleic acid; days 4 and 5.
The test system of data set [6] is Leptospira serogroup Icterohaemorrhagiae. Kind of data set: Biomass (total cell count) and toxicity in fermenter culture. Format: cell-based, L. interrogans (sensu lato). Conditions: additional 400 μg/ml pure linoleic acid in ethanol; EMJH with high LA BSA. The protocol:
as §7

Read-outs that look alike come from different tables or passages of the source.

Take `CC/C=C\C/C=C\C/C=C\CCCCCCCC(=O)O` [C18:3, Linolenic acid]: the “supplementation level showing cytotoxicity” value with Leptospira is not below 200 µg/mL.
Consider `CCCCCC=CCC=CCCCCCCCC(=O)O` [linoleic acid, 9, 12-octadecadienoic acid], for which the “increase in antigenic mass per unit of biomass” value in data set [1] (100 μg/ml C18:2) was found to be 67%; in data set [1] (200 μg/ml C18:2) it was 99%. In addition, the “increase in antigenic mass” value in data set [2] stood at 45%. In addition, the “toxicity to the culture” value in data set [3] is on record as “toxic”. For the same molecule, the “Ag. mass, Ag U/10^9 cells/ml” value in data set [4] (100 μg/ml added at 1 × 10^8 cells/ml, total 105 μg/ml, average of days 4-5) was 1783 Ag U/10^9 cells/ml; in data set [4] (100 μg/ml added at 5 × 10^8 cells/ml, total 105 μg/ml, average of days 4-5), 1564 Ag U/10^9 cells/ml; in data set [4] (100 μg/ml added at 9 × 10^8 cells/ml, total 105 μg/ml, average of days 4-5), 1656 Ag U/10^9 cells/ml; in data set [4] (supplem. pure C18:2 75 μg/ml, total 80 μg/ml, EMJH standard BSA, average of days 3-5), 1450 Ag U/10^9 cells/ml; in data set [4] (supplem. pure C18:2 150 μg/ml, total 155 μg/ml, EMJH standard BSA, average of days 3-5), 1550 Ag U/10^9 cells/ml. The “relative Ag. mass (%)” value in data set [4] (100 μg/ml added at 1 × 10^8 cells/ml, average of days 4-5) is reported as 226%; in data set [4] (100 μg/ml added at 5 × 10^8 cells/ml, average of days 4-5) it was 198%; in data set [4] (100 μg/ml added at 9 × 10^8 cells/ml, average of days 4-5), 210%; in data set [4] (supplem. pure C18:2 75 μg/ml, total 80 μg/ml, average of days 3-5), 199%; in data set [4] (supplem. pure C18:2 150 μg/ml, total 155 μg/ml, average of days 3-5), 213%. The antigenic mass in data set [4] (100 μg/ml pure linoleic acid in ethanol added on day 2 (mid-exponential) to EMJH with high LA BSA, average of days 3-5) came out at 1767 Ag. U/1×10^9 cells. The “increase in relative antigenic mass” value in data set [4] (100 μg/ml single fatty acid, FIGS. 37 and 38) was found to be 77%. In data set [4] (25 instead of 5 μg/ml linoleic acid available), the “increase of antigenic mass” value came out at 124%. The “increase of the antigenic mass (in words)” value in data set [4] (additional 200 μg/ml pure linoleic acid, EMJH with high LA BSA) was “slightly less increase of the antigenic mass compared to that of the 100 μg/ml group”. In data set [5], the “increase in the antigenic mass” value is on record as 63%. Also, the “toxicity for the bacteria (cell numbers after supplementation)” value in data set [6] is recorded as “induced toxicity”.
